The values that follow come from US8012985B2, “Compounds with antiparasitic activity and medicines containing same” (Centre National de la Recherche Scientifique (C.N.R.S.), priority 2002, dated 2011).

One data set deals with P. falciparum. Description: Antimalarial activity in vitro against P. falciparum (Desjardins test, [3H] hypoxanthine incorporation). Type of data set: cell-based. The following applies: growth in vitro of P. falciparum. The source says: FIG. 1 represents the antimalarial activity of compound 6.0 as a function of the drug concentration, according to Desjardins' test, (Desjardins R. E. et al., Antimicrob. Agents Chemother. 1979, 16, 710-718).
(§1) A. Antimalarial Activity In Vitro Against P. Falciparum and In Vivo in Mice Infected with P. Vinckei
(§2) Tables 4 and 5 hereafter show the results of the IC50 values in μM and of ED50 (mg/kg) obtained with compounds of the invention.
(§3) The IC50 is the concentration which inhibits 50% of the growth in vitro of P. falciparum (the IC50 measurements were determined according to the method of Desjardins in which the incorporation of [^3H] hypoxanthine in the nucleic acids serves as a cell viability index) (FIG. 1), the ED50 is the effective dose for inhibiting 50% of the growth in vivo of P. vinckei according to a 4-day suppression test.

A further data set has as its system P. vinckei. Put plainly: Antimalarial activity in vivo in mice infected with P. vinckei, 4-day suppression test. The following applies: for ED50: Plasmodium vinckei, 96 h. As to the method:
as §1, §2, §3
TI corresponds to the therapeutic index, TI=LD50 (semi chronic)/ED50; ip: intraperitoneal administration; po: per os.

Details of data set [1]: species or system mice. The following applies: mouse, in vivo. As to the method:
The results are given hereafter of the pharmacokinetic parameters after administration by intra-peritoneal or oral route in mice for compound 6.0.
For determination of the serum level, bio-tests were used ex vivo: briefly, the medicament is administered to the animal, then blood samples are repeatedly taken. The sera are decomplemented for 30 minutes at 56° C. The active metabolite content is then determined by incubation of different concentrations (dichotomous dilution) of each serum, in the presence of suspensions of erythrocytes infected with P. falciparum, according to the method of DESJARDINS with [^3H] hypoxanthine.
The results are expressed in IS50, which corresponds to the percentage of serum (containing an active metabolite) capable of inhibiting 50% of the growth of P. falciparum.
This value is then converted into serum concentration (usually expressed in ng/ml), by testing the active compound directly (without passing via the animal), on the same suspension infected with P. falciparum and by determining its IC50 value (in ng/ml) [serum count ═IC50] (in ng/ml)×100/SI50 (in %)].
The results are expressed in log (serum count of medicaments), as a function of time, which allows the evaluation of the half-time for the distribution to the serum compartment t1/2(d); the half-time for the elimination of the serum compartment (t1/2(e)); of C0, corresponding to the serum count extrapolated to the origin in the elimination phase; of AUC (which indicates the quantity of drug circulating in the bloodstream); and the relative bio-availability in the administration method by oral route, versus the method by intraperitoneal route [AUC (po)/AUC (ip)] which signifies the degree of absorption by oral route.

The test system of the next data set is Babesia divergens. Description: Antibabesia activity in vitro against Babesia divergens. It is filed as cell-based. As to the method:
(§4) The products 6.0, 22.0, and 2.0 were also evaluated in vitro for their activities against Babesia divergens and B. canis.

Another data set deals with B. canis. Put plainly: Antibabesia activity in vitro against B. canis. It is filed as cell-based. As to the method:
as §4

Where [2] appears, read: ip, tested after 2 administrations of the compound per day for 4 days.
The mark [3] stands for this setting: po, tested after 2 administrations of the compound per day for 4 days.

Counter-ions that a name gives are not always drawn. Like-named read-outs stand apart in the source and are kept apart here. Marks after values point to notes of the source that are not given here.

Consider `N=C1CCCN1CCCCCCCCCCCCN1CCCC1=N` [Compound 24.0, 1,12-bis[N,N′-(2-iminopyrrolidinyl)]dodecane], for which, in the data set on P. falciparum, half-maximal inhibition (IC50) required 4 nM.
Still for that read-out and setting: with `CCOC(=O)ON=C(N)CCCCCCCCCCCCC(N)=NOC(=O)OCC` [Compound 1.17, 1,12-bis(N,N′-ethoxycarbonyloxyamidinyl)dodecane] the figure was 1200 nM; with `NC(CCCCCCCCCCCCC(N)=NOC(=O)c1ccccc1)=NOC(=O)c1ccccc1` [Compound 1.23, 1,12-bis(N,N′-benzoyloxyamidinyl)dodecane], 1100 nM; with “1,12-bis[N,N′-(benzyloxycarbonyl)amidinyl]dodecane [Compound 1.5]”, 400 nM.
As for `CC(=N)NCCCCCCCCCCCCNC(C)=N` [Compound 20.0, 1,12-bis(N,N′-acetamidinyl)dodecane], half-maximal inhibition with P. falciparum (IC50) was put at 2 nM. For the same molecule, the “ED50 (mg/Kg) P. vinckei” value in the data set with P. vinckei (setting [2]) is given as “ip = 2.3* mg/Kg”.
As to `O=C(OCc1ccccc1)N1CCN=C1CCCCCCCCCCCCC1=NCCN1C(=O)OCc1ccccc1` [Compound 6.5, 1,12-bis[N,N′-(benzyloxycarbonyl)imidazolin-2-yl]dodecane], the midpoint of inhibition with P. falciparum, the IC50, lay at 12000 nM. Also, the “ED50 (mg/Kg) P. vinckei” value was “ip < 20* mg/Kg” in the data set on P. vinckei (setting [2]) and “po ≈ 100* mg/Kg” in the data set with P. vinckei (setting [3]).
Take `CC(=O)ON=C(N)CCCCCCCCCCCCC(N)=NOC(C)=O` [Compound 1.22, 1,12-bis(N,N′-acetoxyamidinyl)dodecane]: the concentration for half-maximal inhibition (IC50) (as a rule, the point on the concentration scale where inhibition reaches its midpoint) with P. falciparum is 1400 nM.
Regarding `COC(=O)ON=C(N)CCCCCCCCCCCCC(N)=NOC(=O)OC` [Compound 1.18, 1,12-bis(N,N′-methoxycarbonyloxyamidinyl)dodecane], in the data set with P. falciparum, the 50% inhibitory concentration (IC50) turned out to be 1100 nM.
The molecule `C(CCCCCCNC1=NCCC1)CCCCCNC1=NCCC1` [Compound 21.0, 1,12-bis[N,N′-(3,4-dihydro-2H-pyrrol-5-yl)amino]dodecane] yielded a half-maximal inhibitory concentration (IC50) in the data set with P. falciparum of 3.8 nM. Also, in the data set with P. vinckei (setting [2]), the “ED50 (mg/Kg) P. vinckei” value is on record as “ip = 2.8* mg/Kg”. Further, the “ED50 (mg/Kg) P. vinckei” value in the data set with P. vinckei (setting [3]) is listed as “po = 85* mg/Kg”. For the same molecule, in data set [1] (ip, 15 mg/kg), the C0 worked out at 24 ng/mL and the t1/2 entry is “approximately 35 hours”. Also, in data set [1] (po, 100 mg/kg), the C0 is 16 ng/mL and the “apparent t1/2” value is 36 h.
As to `O=c1[nH]c(CCCCCCCCCCCCc2noc(=O)[nH]2)no1` [Compound 1.27, 1,12-bis[(1.2,4-oxadiazol-5(4H)-one)-3-yl]dodecane], in the data set with P. falciparum, inhibition was half-maximal at 9200 nM (IC50).
In the data set with P. falciparum, `NC(CCCCCCCCCCCCC(N)=NO)=NO` [Compound 1.15, 1,12-bis(N,N′-hydroxyamidinyl)dodecane] yielded an IC50 of 3500 nM. Besides, the “ED50 (mg/Kg) P. vinckei” value in the data set on P. vinckei (po, 4-day suppression test) is given as “po = 120 mg/Kg”.
`CCOC(=O)NC(=N)CCCCCCCCCCCCC(=N)NC(=O)OCC` [Compound 1.2, 1,12-bis[N,N′-(ethyloxycarbonyl)amidinyl]dodecane] registered an IC50 with P. falciparum of 300 nM. The “ED50 (mg/Kg) P. vinckei” value in the data set with P. vinckei (ip, 4-day suppression test) was “ip 33 mg/Kg”.
Molecule `Cc1noc(=O)n1CCCCCCCCCCCCn1c(C)noc1=O` [Compound 20.14, 1,12-bis[N,N′(3-methyl-1,2,4-oxadiazol-5(4H)-one)-3-yl]dodecane] showed an IC50 with P. falciparum (Plasmodium falciparum) of 7100 nM. Besides, the 50% effective dose (ED50) (as a rule, the dose at which the effect has come halfway, by size or by number of responders) worked out at 9 mg/kg in the data set with P. vinckei (ip, 4-day suppression test) and 62 mg/kg in the data set with P. vinckei (po, 4-day suppression test).
Take `NC(CCCCCCCCCCCCC(N)=NOC(=O)Oc1ccccc1)=NOC(=O)Oc1ccccc1` [Compound 1.19, 1,12-bis(N,N′-phenoxycarbonyloxyamidinyl)dodecane]: in the data set on P. falciparum, the 50% inhibitory concentration (IC50) amounted to 3600 nM.
As for `CS(=O)(=O)OCC(=N)NCCCCCCCCCCCCNC(=N)COS(C)(=O)=O` [Compound 20.12, 1,12-bis(N,N′-methylsulfonyloxyacetamidinyl)dodecane], the “ED50 (mg/Kg) P. vinckei” value with P. vinckei (ip, 4-day suppression test) is on record as “ip = 4.7 mg/Kg”; in the data set with P. vinckei (po, 4-day suppression test), “po = 42 mg/Kg”.
`C(CCCCCCC1=NCCN1)CCCCCC1=NCCN1` [Compound 6.0, 1,12-bis(imidazolin-2-yl)dodecane]: in the data set with P. falciparum, the IC50 worked out at 2 nM. Further, the results for the “ED50 (mg/Kg) P. vinckei” value with P. vinckei (setting [2]) and in the data set with P. vinckei (setting [3]) were “ip = 34* mg/Kg” and “po = 62* mg/Kg”, respectively.
`O=C(Oc1ccc(F)cc1)N1CCN=C1CCCCCCCCCCCCC1=NCCN1C(=O)Oc1ccc(F)cc1` [Compound 6.8, 1,12-bis[N,N′-(4-fluorophenylyloxycarbonyl)imidazolin-2-yl]dodecane] displayed a half-maximal inhibitory concentration (IC50) in the data set with P. falciparum of 69500 nM.
The molecule `CCNC(=O)ON=C(N)CCCCCCCCCCCCC(N)=NOC(=O)NCC` [Compound 1.24, 1,12-bis(N,N′-ethylcarbamoyloxyamidinyl)dodecane] had a 50% inhibitory concentration (IC50) in the data set on P. falciparum of 200 nM. In addition, the “ED50 (mg/Kg) P. vinckei” value in the data set on P. vinckei (po, 4-day suppression test) was “po = 90 mg/Kg”.
Consider `N=C(CCCCCCCCCCCCC(=N)N1CCCC1)N1CCCC1` [Compound 2.0, 2 HCl, 1,14-di(pyrrolidin-1-yl)tetradecane-1,14-diimine], for which the 50% inhibitory concentration (IC50) in the data set on Babesia divergens and in the data set with B. canis was less than 50 nM each time.
As to `O=c1[nH]c(CCCCCCCCCCCCc2nsc(=O)[nH]2)ns1` [Compound 1.30, 1,12-bis[(1.2,4-thiadiazol-5(4H)-one)-3-yl]dodecane], 20 nM corresponded to half-maximal inhibition in the data set with P. falciparum (IC50). The “ED50 (mg/Kg) P. vinckei” value with P. vinckei (ip, 4-day suppression test) is given as “ip = 20 mg/Kg”.
Turning to `O=S1NC(CCCCCCCCCCCCC2=NOS(=O)N2)=NO1` (stereo not drawn) [Compound 1.28, 1,12-bis[(1.2,3,5-oxathiadiazol-2(3H)-oxide)-4-yl]dodecane], 200 nM corresponded to half-maximal inhibition with P. falciparum (IC50).
As to `N=C(CCCCCCCCCCCCC(=N)N1CCCCC1)N1CCCCC1` [Compound 3.0, 1,14-di(piperidin-1-yl)tetradecane-1,14-diimine], the half-inhibitory concentration (IC50) in the data set with P. falciparum (Plasmodium falciparum) was found to be 4.9 nM.
The molecule `CC1(C)CN=C(NCCCCCCCCCCCCNC2=NCCC2)NC1` [25.0, 2 TFA] registered an IC50 in the data set on P. falciparum of 1.9 nM.
As to `CC(C)(C)OC(=O)N=C(NCCCCCCCCCCCCNC(=NC(=O)OC(C)(C)C)NC(=O)OC(C)(C)C)NC(=O)OC(C)(C)C` [Compound 12.2, 1,12-bis(N,N′-di-tert-butyloxycarbonylguanidino)dodecane], the IC50 with P. falciparum is 1900 nM.
Still for that read-out and setting: under `CON=C(N)CCCCCCCCCCCCC(N)=NOC` [Compound 1.16, 1,12-bis(N,N′-methoxyamidinyl)dodecane] stands 6800 nM.
Turning to “1,12-bis(N,N′-methoxyacetamidinyl)dodecane [Compound 20.2]”, in the data set with P. falciparum, half-maximal inhibition (IC50) required 4350 nM. Further, the “ED50 (mg/Kg) P. vinckei” value in the data set with P. vinckei (ip, 4-day suppression test) is given as “ip = 10 mg/Kg”; in the data set with P. vinckei (po, 4-day suppression test) it was “po = 110 mg/Kg”.
The molecule “1,12-bis[N,N′-(isobutyloxycarbonyl)amidinyl]dodecane [Compound 1.4]” had an IC50 in the data set with P. falciparum of 500 nM.
